From article PMC9250534, “Synthesis and direct assay of large macrocycle diversities by combinatorial late-stage modification at picomole scale” (Nature Communications, 2022)
Numbered stars: 1 amine (or outer) side, 2 acyl side, 3 side chain; on linkers, the order of the positions; unused ones are H or OH. Bridge positions count the residues as written; N and C are the ends. Square brackets hold non-standard residues; d marks the D form. Peptide text beside a SMILES is read from it. * marks the point of attachment. 2Thenoyl(5-Cl) = O=C(c1ccc(Cl)s1)*; Benzoyl(4-Cl) = O=C(c1ccc(Cl)cc1)*; Cysteamide = C(CS[*:3])N[*:1]; X1 = O=C(/C=C/c1ccccc1)*; Dap = NC[C@H](N)C(=O)O; Mpa = O=C(O)CCS

Molecular target: MDM2 (Homo sapiens, UniProt Q00987)
Sequence (Q00987 whole entry): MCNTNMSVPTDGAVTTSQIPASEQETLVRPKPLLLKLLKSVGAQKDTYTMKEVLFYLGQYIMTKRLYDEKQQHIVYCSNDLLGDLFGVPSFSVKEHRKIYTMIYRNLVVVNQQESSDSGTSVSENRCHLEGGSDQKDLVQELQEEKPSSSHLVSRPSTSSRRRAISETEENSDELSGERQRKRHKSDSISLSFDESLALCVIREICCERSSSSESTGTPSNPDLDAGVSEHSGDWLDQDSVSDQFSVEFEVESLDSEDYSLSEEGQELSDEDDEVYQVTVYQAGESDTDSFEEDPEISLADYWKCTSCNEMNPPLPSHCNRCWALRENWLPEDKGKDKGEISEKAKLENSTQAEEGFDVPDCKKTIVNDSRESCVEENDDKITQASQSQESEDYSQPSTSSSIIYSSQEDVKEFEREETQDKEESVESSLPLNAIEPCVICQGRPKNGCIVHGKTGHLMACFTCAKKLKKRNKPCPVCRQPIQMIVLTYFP
Assay: MDM2 binding screen: displacement of fluorescent p53 peptide probe FP53 (fluorescence polarization)
Conditions: crude macrocycle reactions; for fraction fluorescent probe displaced, Screen: initial screen
Method in brief: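 Macrocycle reaction products at a final 10 µM were tested for displacement of a p53-based fluorescent peptide from human MDM2. Fluorescence anisotropy (ex 485/em 535 nm) was read once per macrocycle at 25 °C.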

Structure (SMILES)	fraction fluorescent probe displaced, Screen (Acid 25)	fraction fluorescent probe displaced, Replicate (Acid 25)	fraction fluorescent probe displaced, Screen (Acid 91)	fraction fluorescent probe displaced, Replicate (Acid 91)	also measured
O=C(N[C@H]1C[C@H]2C(=O)NCCSSCCC(=O)N3CCC[C@@H](C3)C(=O)N[C@@H](Cc3c[nH]c4ccccc34)C(=O)N2C1)c1ccc(Cl)s1 [X B4 W D5 Acid 14]					fraction fluorescent probe displaced, Screen (Acid 14): 0.08; fraction fluorescent probe displaced, Replicate (Acid 14): -0.03
O=C(NC1CC2C(=O)NCCSSCCC(=O)N3CCCC(C3)C(=O)NC(Cc3c[nH]c4ccccc34)C(=O)N2C1)c1ccc(Cl)cc1 (stereo not shown) [X B4 W D5 Acid 25]	0.15	0.20			
O=C(C=Cc1ccccc1)NC1CC2C(=O)NCCSSCCC(=O)N3CCCC(C3)C(=O)NC(Cc3c[nH]c4ccccc34)C(=O)N2C1 (stereo not shown) [X B4 W D5 Acid 91]			0.0563	0.12	
O=C1N[C@@H](Cc2c[nH]c3ccccc23)C(=O)NC2(CCN(C(=O)c3ccc(Cl)s3)CC2)C(=O)NCCSSCCC(=O)N2CCC[C@H]1C2 [X B4 W D6 Acid 14]					fraction fluorescent probe displaced, Screen (Acid 14): 0.08; fraction fluorescent probe displaced, Replicate (Acid 14): 0.22
O=C1N[C@@H](Cc2c[nH]c3ccccc23)C(=O)NC2(CCN(C(=O)c3ccc(Cl)cc3)CC2)C(=O)NCCSSCCC(=O)N2CCC[C@H]1C2 [X B4 W D6 Acid 25]	0.22	0.20			
O=C1NC(Cc2c[nH]c3ccccc23)C(=O)N2CCN(C(=O)c3ccc(Cl)s3)CC2C(=O)NCCSSCCC(=O)N2CCCC1C2 (stereo not shown) [X B4 W D7 Acid 14]					fraction fluorescent probe displaced, Screen (Acid 14): 0.14; fraction fluorescent probe displaced, Replicate (Acid 14): 0.25
O=C1NC(Cc2c[nH]c3ccccc23)C(=O)N2CCN(C(=O)c3ccc(Cl)cc3)CC2C(=O)NCCSSCCC(=O)N2CCCC1C2 (stereo not shown) [X B4 W D7 Acid 25]	0.25	0.17			
O=C1CCSSCCNC(=O)C(Cc2ccccc2)NC(=O)C(CNC(=O)c2ccc(Cl)s2)NC(=O)c2cccc(c2)CN1 (stereo not shown) [X B5 D3 F Acid 14]					fraction fluorescent probe displaced, Screen (Acid 14): -0.00483; fraction fluorescent probe displaced, Replicate (Acid 14): 0.12
O=C1CCSSCCNC(=O)[C@H](Cc2ccccc2)NC(=O)[C@H](CNC(=O)c2ccc(Cl)cc2)NC(=O)c2cccc(c2)CN1 [X B5 D3 F Acid 25]	0.0244	0.10			
O=C(/C=C/c1ccccc1)NC[C@@H]1NC(=O)c2cccc(c2)CNC(=O)CCSSCCNC(=O)[C@H](Cc2ccccc2)NC1=O [X B5 D3 F Acid 91]			-0.05	0.0168	
O=C1CCSSCCNC(=O)[C@H](Cc2c[nH]c3ccccc23)NC(=O)[C@H](CNC(=O)c2ccc(Cl)cc2)NC(=O)c2cccc(c2)CN1 [X B5 D3 W Acid 25]	0.25	0.30			
O=C(C=Cc1ccccc1)NCC1NC(=O)c2cccc(c2)CNC(=O)CCSSCCNC(=O)C(Cc2c[nH]c3ccccc23)NC1=O (stereo not shown) [X B5 D3 W Acid 91]			0.16	0.29	
O=C1CCSSCCNC(=O)C(Cc2ccccc2)NC(=O)C2CC(NC(=O)c3ccc(Cl)cc3)CN2C(=O)c2cccc(c2)CN1 (stereo not shown) [X B5 D5 F Acid 25]	0.13	0.05			
O=C(C=Cc1ccccc1)NC1CC2C(=O)NC(Cc3c[nH]c4ccccc34)C(=O)NCCSSCCC(=O)NCc3cccc(c3)C(=O)N2C1 (stereo not shown) [X B5 D5 W Acid 91]			-0.13	0.0168	
O=C1CCSSCCNC(=O)C(Cc2ccccc2)NC(=O)C2(CCN(C(=O)c3ccc(Cl)s3)CC2)NC(=O)c2cccc(c2)CN1 (stereo not shown) [X B5 D6 F Acid 14]					fraction fluorescent probe displaced, Screen (Acid 14): -0.0116; fraction fluorescent probe displaced, Replicate (Acid 14): 0.05
O=C1CCSSCCNC(=O)[C@H](Cc2ccccc2)NC(=O)C2(CCN(C(=O)c3ccc(Cl)cc3)CC2)NC(=O)c2cccc(c2)CN1 [X B5 D6 F Acid 25]	0.0462	0.07			
O=C1CCSSCCNC(=O)C(Cc2ccccc2)NC(=O)C2(CCN(C(=O)C=Cc3ccccc3)CC2)NC(=O)c2cccc(c2)CN1 (stereo not shown) [X B5 D6 F Acid 91]			-0.10	-0.08	
O=C1CCSSCCNC(=O)[C@H](Cc2c[nH]c3ccccc23)NC(=O)C2(CCN(C(=O)c3ccc(Cl)cc3)CC2)NC(=O)c2cccc(c2)CN1 [X B5 D6 W Acid 25]	0.12	0.15			
O=C1CCSSCCNC(=O)C(Cc2c[nH]c3ccccc23)NC(=O)C2CN(C(=O)c3ccc(Cl)cc3)CCN2C(=O)c2cccc(c2)CN1 (stereo not shown) [X B5 D7 W Acid 25]	0.09	0.15			

Structure (SMILES)	fraction fluorescent probe displaced, Screen (Acid 25)	fraction fluorescent probe displaced, Replicate (Acid 25)	fraction fluorescent probe displaced, Screen (Acid 91)	fraction fluorescent probe displaced, Replicate (Acid 91)	also measured
O=C1CCSSCCNC(=O)C(Cc2c[nH]c3ccccc23)NC(=O)C2CN(C(=O)C=Cc3ccccc3)CCN2C(=O)c2cccc(c2)CN1 (stereo not shown) [X B5 D7 W Acid 91]			-0.10	-0.06	
O=C1CCSSCCNC(=O)[C@H](CNC(=O)c2ccc(Cl)s2)NC(=O)[C@H](Cc2ccccc2)NC(=O)c2cccc(c2)CN1 [X B5 F D3 Acid 14]					fraction fluorescent probe displaced, Screen (Acid 14): 0.053; fraction fluorescent probe displaced, Replicate (Acid 14): 0.0211
O=C1CCSSCCNC(=O)[C@H](CNC(=O)c2ccc(Cl)cc2)NC(=O)[C@H](Cc2ccccc2)NC(=O)c2cccc(c2)CN1 [X B5 F D3 Acid 25]	0.09	0.0465			
O=C(/C=C/c1ccccc1)NC[C@@H]1NC(=O)[C@H](Cc2ccccc2)NC(=O)c2cccc(c2)CNC(=O)CCSSCCNC1=O [X B5 F D3 Acid 91]			-0.05	-0.00827	
O=C1CCSSCCNC(=O)[C@@H]2C[C@H](NC(=O)c3ccc(Cl)s3)CN2C(=O)[C@H](Cc2ccccc2)NC(=O)c2cccc(c2)CN1 [X B5 F D5 Acid 14]					fraction fluorescent probe displaced, Screen (Acid 14): 0.0241; fraction fluorescent probe displaced, Replicate (Acid 14): -0.00432
O=C1CCSSCCNC(=O)[C@@H]2C[C@H](NC(=O)c3ccc(Cl)cc3)CN2C(=O)[C@H](Cc2ccccc2)NC(=O)c2cccc(c2)CN1 [X B5 F D5 Acid 25]	0.0244	0.10			
O=C1CCSSCCNC(=O)C2(CCN(C(=O)c3ccc(Cl)cc3)CC2)NC(=O)C(Cc2ccccc2)NC(=O)c2cccc(c2)CN1 (stereo not shown) [X B5 F D6 Acid 25]	0.0244	0.0465			
O=C1CCSSCCNC(=O)C2CN(C(=O)C=Cc3ccccc3)CCN2C(=O)C(Cc2ccccc2)NC(=O)c2cccc(c2)CN1 (stereo not shown) [X B5 F D7 Acid 91]			-0.05	-0.06	
O=C1CCSSCCNC(=O)[C@H](CNC(=O)c2ccc(Cl)cc2)NC(=O)[C@H](Cc2c[nH]c3ccccc23)NC(=O)c2cccc(c2)CN1 [X B5 W D3 Acid 25]	0.15	0.12			
O=C(/C=C/c1ccccc1)NC[C@@H]1NC(=O)[C@H](Cc2c[nH]c3ccccc23)NC(=O)c2cccc(c2)CNC(=O)CCSSCCNC1=O [X B5 W D3 Acid 91]			0.16	0.12	
O=C(C=Cc1ccccc1)NC1CC2C(=O)NCCSSCCC(=O)NCc3cccc(c3)C(=O)NC(Cc3c[nH]c4ccccc34)C(=O)N2C1 (stereo not shown) [X B5 W D5 Acid 91]			0.00268	0.12	
O=C1CCSSCCNC(=O)C2(CCN(C(=O)c3ccc(Cl)s3)CC2)NC(=O)C(Cc2c[nH]c3ccccc23)NC(=O)c2cccc(c2)CN1 (stereo not shown) [X B5 W D6 Acid 14]					fraction fluorescent probe displaced, Screen (Acid 14): 0.20; fraction fluorescent probe displaced, Replicate (Acid 14): 0.33
O=C1CCSSCCNC(=O)C2(CCN(C(=O)c3ccc(Cl)cc3)CC2)NC(=O)[C@H](Cc2c[nH]c3ccccc23)NC(=O)c2cccc(c2)CN1 [X B5 W D6 Acid 25]	0.09	0.28			
O=C1CCSSCCNC(=O)C2(CCN(C(=O)/C=C/c3ccccc3)CC2)NC(=O)[C@H](Cc2c[nH]c3ccccc23)NC(=O)c2cccc(c2)CN1 [X B5 W D6 Acid 91]			0.16	0.17	
O=C1CCSSCCNC(=O)C2CN(C(=O)c3ccc(Cl)cc3)CCN2C(=O)C(Cc2c[nH]c3ccccc23)NC(=O)c2cccc(c2)CN1 (stereo not shown) [X B5 W D7 Acid 25]	0.12	0.07			
O=C1CCSSCCNC(=O)C2CN(C(=O)C=Cc3ccccc3)CCN2C(=O)C(Cc2c[nH]c3ccccc23)NC(=O)c2cccc(c2)CN1 (stereo not shown) [X B5 W D7 Acid 91]			0.03	-0.00827	
O=C1CCSSCCNC(=O)[C@H](Cc2ccccc2)NC(=O)[C@@H]2CCCN2C(=O)[C@H](CNC(=O)c2ccc(Cl)s2)N1 [X D3 B1 F Acid 14] ([Mpa][Dap](2Thenoyl(5-Cl))PF-Cysteamide; disulfide 1-C)					fraction fluorescent probe displaced, Screen (Acid 14): 0.11; fraction fluorescent probe displaced, Replicate (Acid 14): 0.07
O=C1CCSSCCNC(=O)[C@H](Cc2ccccc2)NC(=O)[C@@H]2CCCN2C(=O)[C@H](CNC(=O)c2ccc(Cl)cc2)N1 [X D3 B1 F Acid 25] ([Mpa][Dap](Benzoyl(4-Cl))PF-Cysteamide; disulfide 1-C)	0.15	0.12			
O=C(/C=C/c1ccccc1)NC[C@@H]1NC(=O)CCSSCCNC(=O)[C@H](Cc2ccccc2)NC(=O)[C@@H]2CCCN2C1=O [X D3 B1 F Acid 91] ([Mpa][Dap](X1)PF-Cysteamide; disulfide 1-C)			0.00268	-0.00827	
